# Experiments:
# [1] = molecular target: T1, Orexin receptor type 2 (Homo sapiens, UniProt O43614); assay: Displacement of [3H](S)-N-(2-(1H-pyrrol-1-yl)phenyl)-1-(2-(1-methyl-1H-benzo[d]imidazol-2-ylthio)acetyl)pyrrolidine-2-carboxamide from human OX2R expressed in CHO cells; assay type: cell-based
# T1 sequence (O43614 whole entry): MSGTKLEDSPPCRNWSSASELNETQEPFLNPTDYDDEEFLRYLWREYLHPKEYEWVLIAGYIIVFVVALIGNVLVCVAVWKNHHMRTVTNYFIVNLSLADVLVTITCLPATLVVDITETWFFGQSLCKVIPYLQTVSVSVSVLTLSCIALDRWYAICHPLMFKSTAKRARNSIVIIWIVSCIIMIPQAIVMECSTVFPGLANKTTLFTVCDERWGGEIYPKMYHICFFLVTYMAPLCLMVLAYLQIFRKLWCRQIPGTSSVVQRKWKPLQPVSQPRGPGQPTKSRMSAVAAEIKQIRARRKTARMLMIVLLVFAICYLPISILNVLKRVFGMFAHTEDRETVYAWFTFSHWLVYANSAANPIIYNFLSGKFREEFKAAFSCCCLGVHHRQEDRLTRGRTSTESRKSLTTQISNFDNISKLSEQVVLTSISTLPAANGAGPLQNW
# [2] = molecular target: T2, Orexin receptor type 2 (Homo sapiens) (UniProt O43614); assay: Antagonist activity at human OX2R expressed in CHOK1 cells assessed as effect on calcium mobilization; assay type: functional, cell-based; details: CHO-K1
# T2 sequence (whole entry): T1 sequence (O43614 whole entry)
# [3] = molecular target: T3, Orexin/Hypocretin receptor type 1 (Homo sapiens, UniProt O43613); assay: Displacement of [3H](S)-1-[2-(1-methyl-1H-benzoimidazol-2-ylsulfanyl)-acetyl]-pyrrolidine-2-carboxylic acid biphenyl-2-ylamide from human OX1R expressed in CHO cells; assay type: cell-based
# T3 sequence (O43613 whole entry): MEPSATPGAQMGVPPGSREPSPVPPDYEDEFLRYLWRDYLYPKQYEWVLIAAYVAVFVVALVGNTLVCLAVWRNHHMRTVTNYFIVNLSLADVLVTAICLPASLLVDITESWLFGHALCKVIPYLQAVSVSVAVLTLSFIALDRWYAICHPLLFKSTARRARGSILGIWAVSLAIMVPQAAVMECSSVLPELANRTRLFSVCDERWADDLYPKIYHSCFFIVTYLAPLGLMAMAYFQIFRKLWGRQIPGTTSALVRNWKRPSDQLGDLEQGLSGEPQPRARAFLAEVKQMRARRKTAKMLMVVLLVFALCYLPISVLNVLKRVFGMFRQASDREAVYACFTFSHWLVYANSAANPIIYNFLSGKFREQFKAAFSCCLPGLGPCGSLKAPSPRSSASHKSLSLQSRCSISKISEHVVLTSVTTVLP
# [4] = molecular target: T4, Thyrotropin-releasing hormone receptor (Homo sapiens) (UniProt P34981); assay: Inhibition of TRH receptor
# T4 sequence (whole entry): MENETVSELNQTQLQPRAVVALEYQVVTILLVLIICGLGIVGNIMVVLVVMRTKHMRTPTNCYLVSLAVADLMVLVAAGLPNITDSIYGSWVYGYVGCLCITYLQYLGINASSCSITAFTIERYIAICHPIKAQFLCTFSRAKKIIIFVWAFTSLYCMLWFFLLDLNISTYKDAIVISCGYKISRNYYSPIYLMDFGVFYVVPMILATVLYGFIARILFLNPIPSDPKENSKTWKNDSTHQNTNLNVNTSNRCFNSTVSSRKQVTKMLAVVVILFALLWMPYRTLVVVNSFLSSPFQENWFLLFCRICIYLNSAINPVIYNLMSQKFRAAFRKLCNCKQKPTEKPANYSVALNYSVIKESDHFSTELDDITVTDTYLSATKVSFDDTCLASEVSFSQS
# [5] = Inhibition of sodium channel at site 2
# [6] = Half life in rat; assay type: ADME, organism-based; details: in vivo
# [7] = molecular target: T5, Orexin/Hypocretin receptor type 1 (Rattus norvegicus) (UniProt P56718); assay: Antagonist activity at rat OX1R assessed as effect on calcium mobilization; assay type: functional
# T5 sequence (whole entry): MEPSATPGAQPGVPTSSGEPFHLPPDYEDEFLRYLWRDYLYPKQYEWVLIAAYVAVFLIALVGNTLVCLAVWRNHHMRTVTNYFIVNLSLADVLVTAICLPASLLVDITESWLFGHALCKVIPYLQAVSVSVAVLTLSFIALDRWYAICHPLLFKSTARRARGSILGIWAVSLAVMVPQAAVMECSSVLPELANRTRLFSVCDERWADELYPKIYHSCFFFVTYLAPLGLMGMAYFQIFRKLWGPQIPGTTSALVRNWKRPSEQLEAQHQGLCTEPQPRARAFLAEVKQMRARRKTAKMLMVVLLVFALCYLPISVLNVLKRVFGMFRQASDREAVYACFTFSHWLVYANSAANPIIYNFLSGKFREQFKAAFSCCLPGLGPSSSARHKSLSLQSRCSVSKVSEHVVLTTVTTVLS
# [8] = Oral bioavailability in rat; assay type: ADME, organism-based; details: in vivo
# [9] = Drug level in rat brain at 100 mg/kg, ip after 30 mins; assay type: ADME, organism-based; design: dose 100 mg/kg, route intraperitoneal; details: read-out: Drug uptake
# [10] = Drug level in rat plasma at 100 mg/kg, ip after 30 mins; assay type: ADME, organism-based; design: dose 100 mg/kg, route intraperitoneal
# [11] = Drug level in rat cerebrospinal fluid at 100 mg/kg, ip after 30 mins; assay type: ADME, organism-based; design: dose 100 mg/kg, route intraperitoneal; details: read-out: Drug uptake
# [12] = molecular target: Synaptic vesicular amine transporter (Homo sapiens) (UniProt Q05940); assay: Inhibition of monoamine transporter
# [13] = Inhibition of prostanoid receptor
# [14] = molecular target: T6, Thromboxane A2 receptor (Homo sapiens) (UniProt P21731); assay: Inhibition of thromboxane A2 receptor
# T6 sequence (whole entry): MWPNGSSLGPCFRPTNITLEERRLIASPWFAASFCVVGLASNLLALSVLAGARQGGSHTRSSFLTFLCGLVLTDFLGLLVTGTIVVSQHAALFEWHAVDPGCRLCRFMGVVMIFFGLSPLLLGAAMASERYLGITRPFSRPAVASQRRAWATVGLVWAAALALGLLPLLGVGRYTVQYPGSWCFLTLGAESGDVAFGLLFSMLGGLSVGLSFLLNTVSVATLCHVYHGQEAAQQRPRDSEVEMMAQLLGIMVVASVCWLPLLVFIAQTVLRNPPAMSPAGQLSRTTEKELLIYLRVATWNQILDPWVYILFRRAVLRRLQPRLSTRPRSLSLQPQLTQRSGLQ
# [15] = test system: Rattus norvegicus; assay: Inhibition of ADL-orexin-B-induced increase in locomotion activity in ip dosed rat; assay type: functional, organism-based
# [16] = Partition coefficient, log P of the compound; assay type: physicochemical; details: octanol/water
# [17] = Clearance in rat; assay type: ADME, organism-based; details: in vivo
# Synaptic vesicular amine transporter (Homo sapiens), sequence (Q05940 whole entry): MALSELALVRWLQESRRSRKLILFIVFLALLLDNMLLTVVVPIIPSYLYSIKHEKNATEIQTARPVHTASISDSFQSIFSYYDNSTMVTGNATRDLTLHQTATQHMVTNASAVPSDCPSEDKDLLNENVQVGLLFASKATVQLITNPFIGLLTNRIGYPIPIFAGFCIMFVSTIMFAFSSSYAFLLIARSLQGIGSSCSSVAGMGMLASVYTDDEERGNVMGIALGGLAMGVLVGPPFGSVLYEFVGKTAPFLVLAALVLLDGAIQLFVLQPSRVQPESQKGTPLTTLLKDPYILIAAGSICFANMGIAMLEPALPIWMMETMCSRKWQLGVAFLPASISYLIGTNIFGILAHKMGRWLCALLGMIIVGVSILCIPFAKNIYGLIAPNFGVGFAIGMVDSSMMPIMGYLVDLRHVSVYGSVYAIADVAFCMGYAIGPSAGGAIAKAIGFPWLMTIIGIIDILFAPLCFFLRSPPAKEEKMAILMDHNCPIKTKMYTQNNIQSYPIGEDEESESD
Structure (SMILES),Ki [1] [nM],Activity [2] [nM],Ki [3] [nM],further results
O=C(Nc1ccccc1-n1cccc1)[C@@H]1CCCN1C(=O)CSc1nc2ccccc2o1,8,28,120,–
Cn1c(CCC(=O)N2CCC[C@H]2C(=O)Nc2ccccc2-c2ccccc2)nc2ccccc21,0.8,5,15,Activity [4]: < 10 µM; Activity [5]: < 10 µM; half-life [6]: 18 min
O=C(Nc1ccccc1-c1ccccc1F)[C@@H]1CCCN1C(=O)CCc1nc2ccccc2[nH]1,3,4,27,–
O=C(Nc1ccccc1)[C@@H]1CCCN1C(=O)CSc1nc2ccccc2[nH]1,560,4050,1400,–
O=C(Nc1ccccc1-n1cccc1)[C@@H]1CCCN1C(=O)CSc1nc2ccccc2[nH]1,1,6,28,–
O=C(Nc1ccccc1-c1ccccc1)[C@@H]1CCCN1C(=O)CSc1nc2ccccc2[nH]1,0.6,7,10,–
COc1ccccc1-c1ccccc1NC(=O)[C@@H]1CCCN1C(=O)CCc1nc2ccccc2[nH]1,2,5,86,–
Cc1ccc2c(c1)nc(SCC(=O)N1CCC[C@H]1C(=O)Nc1ccccc1-n1cccc1)n2C,0.09,8,0.7,–
Cn1c(SCC(=O)N2CCC[C@H]2C(=O)Nc2ccccc2-n2cccc2)nc2ccccc21,0.3,2,9,–
O=C(Nc1ccccc1-c1ccccc1)[C@@H]1CCCN1C(=O)CCc1nc2ccccc2[nH]1,6,20,40,–
O=C(Nc1ccccc1-n1cccc1)[C@H]1CCCN1C(=O)CSc1nc2ccccc2[nH]1,131,–,2500,–
Cn1c(CCC(=O)N2CCC[C@H]2C(=O)Nc2ccccc2-n2cccc2)nc2ccccc21,2,3,49,–
Cc1ccc2nc(SCC(=O)N3CCC[C@H]3C(=O)Nc3ccccc3-n3cccc3)[nH]c2c1,0.2,–,3,–
O=C(Nc1ccccc1-n1cccc1)[C@@H]1CCCN1C(=O)CCc1nc2ccccc2[nH]1,11,36,130,Activity [7]: 520 nM
Cc1ccc2[nH]c(SCC(=O)N3CCC[C@H]3C(=O)Nc3ccccc3-n3cccc3)nc2c1,–,2,–,–
O=C(Nc1ccccc1Oc1ccccc1)[C@@H]1CCCN1C(=O)CSc1nc2ccccc2[nH]1,3,16,69,–
O=C(Nc1ccccc1-n1cccc1)[C@@H]1CCCN1C(=O)CSc1nc2ccccc2s1,2,11,39,–
Cn1c(SCC(=O)N2CCC[C@H]2C(=O)Nc2ccccc2-c2ccccc2)nc2ccccc21,0.2,4,–,bioavailability [8]: 11%; concentration at 0.5 h [9]: 2370 nM; concentration at 0.5 h [10]: 3.5 µM; concentration at 0.5 h [11]: 43 nM; Activity [12]: < 10 µM; Activity [13]: < 10 µM; Activity [14]: < 10 µM; Activity [15]: Dose-dependent effect; logP [16]: 3.4; clearance [17]: 3.7 mL/min/kg; half-life [6]: 18 min
O=C(Nc1ccc(-c2ccccc2)cc1)[C@@H]1CCCN1C(=O)CSc1nc2ccccc2[nH]1,11,143,2300,–
Cc1ccc2nc(SCC(=O)N3CCC[C@H]3C(=O)Nc3ccccc3-n3cccc3)n(C)c2c1,0.1,8,2,–
O=C(Nc1cccc(-c2ccccc2)c1)[C@@H]1CCCN1C(=O)CSc1nc2ccccc2[nH]1,280,2640,500,–

# From ChEMBL document CHEMBL1143219, “Proline bis-amides as potent dual orexin receptor antagonists” (Bioorg Med Chem Lett, 2008)
